Test results published in ChEMBL document CHEMBL4765227, “Hit to lead optimization of a series of N-[4-(1,3-benzothiazol-2-yl)phenyl]acetamides as monoacylglycerol lipase inhibitors with potential anticancer activity” (Eur J Med Chem, 2016).

Assays:
Type in all cases: functional
Conditions in all cases: read-out: GI
HCT-116 = experiment: Growth inhibition of human HCT-116 cells at 10 uM incubated for 48 hrs by sulforhodamine B assay relative to control
OVCAR-5 = experiment: Growth inhibition of human OVCAR-5 cells at 10 uM incubated for 48 hrs by sulforhodamine B assay relative to control
HT-29 = experiment: Growth inhibition of human HT-29 cells at 10 uM incubated for 48 hrs by sulforhodamine B assay relative to control
NCI-H460 = experiment: Growth inhibition of human NCI-H460 cells at 10 uM incubated for 48 hrs by sulforhodamine B assay relative to control
MDA-MB-468 = experiment: Growth inhibition of human MDA-MB-468 cells at 10 uM incubated for 48 hrs by sulforhodamine B assay relative to control
SK-OV-3 = experiment: Growth inhibition of human SK-OV-3 cells at 10 uM incubated for 48 hrs by sulforhodamine B assay relative to control
UACC-62 = experiment: Growth inhibition of human UACC-62 cells at 10 uM incubated for 48 hrs by sulforhodamine B assay relative to control
PC-3 = experiment: Growth inhibition of human PC-3 cells at 10 uM incubated for 48 hrs by sulforhodamine B assay relative to control
SNB-19 = experiment: Growth inhibition of human SNB-19 cells at 10 uM incubated for 48 hrs by sulforhodamine B assay relative to control
CAKI-1 = experiment: Growth inhibition of human CAKI-1 cells at 10 uM incubated for 48 hrs by sulforhodamine B assay relative to control
RXF 393 = experiment: Growth inhibition of human RXF 393 cells at 10 uM incubated for 48 hrs by sulforhodamine B assay relative to control
HCT-15 = experiment: Growth inhibition of human HCT-15 cells at 10 uM incubated for 48 hrs by sulforhodamine B assay relative to control
IGROV-1 = experiment: Growth inhibition of human IGROV-1 cells at 10 uM incubated for 48 hrs by sulforhodamine B assay relative to control
NCI-H226 = experiment: Growth inhibition of human NCI-H226 cells at 10 uM incubated for 48 hrs by sulforhodamine B assay relative to control
MDA-MB-435 = experiment: Growth inhibition of human MDA-MB-435 cells at 10 uM incubated for 48 hrs by sulforhodamine B assay relative to control
SW-620 = experiment: Growth inhibition of human SW-620 cells at 10 uM incubated for 48 hrs by sulforhodamine B assay relative to control
TK-10 = experiment: Growth inhibition of human TK-10 cells at 10 uM incubated for 48 hrs by sulforhodamine B assay relative to control
SN12C = experiment: Growth inhibition of human SN12C cells at 10 uM incubated for 48 hrs by sulforhodamine B assay relative to control
A549 = experiment: Growth inhibition of human A549/ATCC cells at 10 uM incubated for 48 hrs by sulforhodamine B assay relative to control
T47D = experiment: Growth inhibition of human T47D cells at 10 uM incubated for 48 hrs by sulforhodamine B assay relative to control
SNB-75 = experiment: Growth inhibition of human SNB-75 cells at 10 uM incubated for 48 hrs by sulforhodamine B assay relative to control
ACHN = experiment: Growth inhibition of human ACHN cells at 10 uM incubated for 48 hrs by sulforhodamine B assay relative to control
HOP-62 = experiment: Growth inhibition of human HOP-62 cells at 10 uM incubated for 48 hrs by sulforhodamine B assay relative to control
RPMI-8226 = experiment: Growth inhibition of human RPMI-8226 cells at 10 uM incubated for 48 hrs by sulforhodamine B assay relative to control
MDA-MB-231 = experiment: Growth inhibition of human MDA-MB-231 cells at 10 uM incubated for 48 hrs by sulforhodamine B assay relative to control
DU-145 = experiment: Growth inhibition of human DU-145 cells at 10 uM incubated for 48 hrs by sulforhodamine B assay relative to control
HOP-92 = experiment: Growth inhibition of human HOP-92 cells at 10 uM incubated for 48 hrs by sulforhodamine B assay relative to control
NCI/ADR-RES = experiment: Growth inhibition of human NCI/ADR-RES cells at 10 uM incubated for 48 hrs by sulforhodamine B assay relative to control
NCI-H522 = experiment: Growth inhibition of human NCI-H522 cells at 10 uM incubated for 48 hrs by sulforhodamine B assay relative to control
BT-549 = experiment: Growth inhibition of human BT-549 cells at 10 uM incubated for 48 hrs by sulforhodamine B assay relative to control
HCC 2998 = experiment: Growth inhibition of human HCC 2998 cells at 10 uM incubated for 48 hrs by sulforhodamine B assay relative to control
MOLT-4 = experiment: Growth inhibition of human MOLT-4 cells at 10 uM incubated for 48 hrs by sulforhodamine B assay relative to control
NCI-H322M = experiment: Growth inhibition of human NCI-H322M cells at 10 uM incubated for 48 hrs by sulforhodamine B assay relative to control
UO-31 = experiment: Growth inhibition of human UO-31 cells at 10 uM incubated for 48 hrs by sulforhodamine B assay relative to control
SK-MEL-28 = experiment: Growth inhibition of human SK-MEL-28 cells at 10 uM incubated for 48 hrs by sulforhodamine B assay relative to control
OVCAR-8 = experiment: Growth inhibition of human OVCAR-8 cells at 10 uM incubated for 48 hrs by sulforhodamine B assay relative to control
CCRF-CEM = experiment: Growth inhibition of human CCRF-CEM cells at 10 uM incubated for 48 hrs by sulforhodamine B assay relative to control
HL-60(TB) = experiment: Growth inhibition of human HL-60(TB) cells at 10 uM incubated for 48 hrs by sulforhodamine B assay relative to control
KM12 = experiment: Growth inhibition of human KM12 cells at 10 uM incubated for 48 hrs by sulforhodamine B assay relative to control
U-251 = experiment: Growth inhibition of human U-251 cells at 10 uM incubated for 48 hrs by sulforhodamine B assay relative to control
M14 = experiment: Growth inhibition of human M14 cells at 10 uM incubated for 48 hrs by sulforhodamine B assay relative to control
K562 = experiment: Growth inhibition of human K562 cells at 10 uM incubated for 48 hrs by sulforhodamine B assay relative to control
Malme-3M = experiment: Growth inhibition of human Malme-3M cells at 10 uM incubated for 48 hrs by sulforhodamine B assay relative to control
SK-MEL-5 = experiment: Growth inhibition of human SK-MEL-5 cells at 10 uM incubated for 48 hrs by sulforhodamine B assay relative to control

## O=C(CN1CCOCC1)Nc1ccc(-c2nc3ccccc3s2)cc1
HCT-116
  inhibition of growth at 10 µM: 3.9%
OVCAR-5
  inhibition of growth at 10 µM: 6.58%
HT-29
  inhibition of growth at 10 µM: -3.04%
NCI-H460
  inhibition of growth at 10 µM: 0.34%
MDA-MB-468
  inhibition of growth at 10 µM: 107%
SK-OV-3
  inhibition of growth at 10 µM: -21%
UACC-62
  inhibition of growth at 10 µM: -0.01%
PC-3
  inhibition of growth at 10 µM: 6.98%
SNB-19
  inhibition of growth at 10 µM: -0.79%
CAKI-1
  inhibition of growth at 10 µM: 0.31%
RXF 393
  inhibition of growth at 10 µM: -11.4%
HCT-15
  inhibition of growth at 10 µM: 6.26%
IGROV-1
  inhibition of growth at 10 µM: -5.69%
NCI-H226
  inhibition of growth at 10 µM: 4.99%
MDA-MB-435
  inhibition of growth at 10 µM: -7.79%
SW-620
  inhibition of growth at 10 µM: -7.93%
TK-10
  inhibition of growth at 10 µM: -12%
SN12C
  inhibition of growth at 10 µM: -1.02%
A549
  inhibition of growth at 10 µM: 6.19%
T47D
  inhibition of growth at 10 µM: 6.73%
SNB-75
  inhibition of growth at 10 µM: 0.01%
ACHN
  inhibition of growth at 10 µM: -4.03%
HOP-62
  inhibition of growth at 10 µM: -6.41%
RPMI-8226
  inhibition of growth at 10 µM: 6%
MDA-MB-231
  inhibition of growth at 10 µM: 3.16%
DU-145
  inhibition of growth at 10 µM: -9.1%
HOP-92
  inhibition of growth at 10 µM: 16.7%
NCI/ADR-RES
  inhibition of growth at 10 µM: -4.92%
NCI-H522
  inhibition of growth at 10 µM: 5.46%
BT-549
  inhibition of growth at 10 µM: -3.57%
HCC 2998
  inhibition of growth at 10 µM: 12%
MOLT-4
  inhibition of growth at 10 µM: 0.57%
NCI-H322M
  inhibition of growth at 10 µM: -0.11%
UO-31
  inhibition of growth at 10 µM: 4.97%
SK-MEL-28
  inhibition of growth at 10 µM: -2.13%
OVCAR-8
  inhibition of growth at 10 µM: -2.44%
CCRF-CEM
  inhibition of growth at 10 µM: 4.51%
HL-60(TB)
  inhibition of growth at 10 µM: -0.57%
KM12
  inhibition of growth at 10 µM: -6.84%
U-251
  inhibition of growth at 10 µM: 10.5%
M14
  inhibition of growth at 10 µM: -1.15%
K562
  inhibition of growth at 10 µM: 0.74%
Malme-3M
  inhibition of growth at 10 µM: -17%
SK-MEL-5
  inhibition of growth at 10 µM: 7.27%

## Cc1cc(NCC(=O)Nc2ccc(-c3nc4ccccc4s3)cc2)no1
HCT-116
  inhibition of growth at 10 µM: 9.26%
OVCAR-5
  inhibition of growth at 10 µM: -19%
HT-29
  inhibition of growth at 10 µM: -4.71%
NCI-H460
  inhibition of growth at 10 µM: -2.65%
MDA-MB-468
  inhibition of growth at 10 µM: 147%
SK-OV-3
  inhibition of growth at 10 µM: -19.7%
UACC-62
  inhibition of growth at 10 µM: 13.5%
PC-3
  inhibition of growth at 10 µM: 3.37%
SNB-19
  inhibition of growth at 10 µM: 3.47%
CAKI-1
  inhibition of growth at 10 µM: -3.5%
RXF 393
  inhibition of growth at 10 µM: -4.8%
HCT-15
  inhibition of growth at 10 µM: 9.32%
IGROV-1
  inhibition of growth at 10 µM: 11.5%
NCI-H226
  inhibition of growth at 10 µM: 8.98%
MDA-MB-435
  inhibition of growth at 10 µM: -4.18%
SW-620
  inhibition of growth at 10 µM: -13.2%
TK-10
  inhibition of growth at 10 µM: 7.91%
SN12C
  inhibition of growth at 10 µM: -2.43%
A549
  inhibition of growth at 10 µM: 7.66%
T47D
  inhibition of growth at 10 µM: 19.7%
SNB-75
  inhibition of growth at 10 µM: -11.5%
ACHN
  inhibition of growth at 10 µM: -10.7%
HOP-62
  inhibition of growth at 10 µM: -10.9%
RPMI-8226
  inhibition of growth at 10 µM: 1.57%
MDA-MB-231
  inhibition of growth at 10 µM: -8.49%
DU-145
  inhibition of growth at 10 µM: 4.13%
HOP-92
  inhibition of growth at 10 µM: -0.34%
NCI/ADR-RES
  inhibition of growth at 10 µM: -2.68%
NCI-H522
  inhibition of growth at 10 µM: 17.9%
BT-549
  inhibition of growth at 10 µM: 5.29%
HCC 2998
  inhibition of growth at 10 µM: 0.84%
MOLT-4
  inhibition of growth at 10 µM: 53.2%
NCI-H322M
  inhibition of growth at 10 µM: -1.5%
UO-31
  inhibition of growth at 10 µM: 23%
SK-MEL-28
  inhibition of growth at 10 µM: -10.5%
OVCAR-8
  inhibition of growth at 10 µM: 3.61%
CCRF-CEM
  inhibition of growth at 10 µM: 46.3%
HL-60(TB)
  inhibition of growth at 10 µM: 3.55%
KM12
  inhibition of growth at 10 µM: -1.64%
U-251
  inhibition of growth at 10 µM: 11.9%
M14
  inhibition of growth at 10 µM: -5.87%
K562
  inhibition of growth at 10 µM: 17%
Malme-3M
  inhibition of growth at 10 µM: 10.5%
SK-MEL-5
  inhibition of growth at 10 µM: 12.3%
